Paper PMC9467556, “Identification of novel pyrrolopyrimidine and pyrrolopyridine derivatives as potent ENPP1 inhibitors” (Journal of Enzyme Inhibition and Medicinal Chemistry, 2022)
Where a name gives a salt, the structure may show the parent alone.

Biological target: T1, human recombinant ENPP1 (Homo sapiens, UniProt P22413)
T1 construct: purchased R&D systems
T1 sequence (P22413 1-925): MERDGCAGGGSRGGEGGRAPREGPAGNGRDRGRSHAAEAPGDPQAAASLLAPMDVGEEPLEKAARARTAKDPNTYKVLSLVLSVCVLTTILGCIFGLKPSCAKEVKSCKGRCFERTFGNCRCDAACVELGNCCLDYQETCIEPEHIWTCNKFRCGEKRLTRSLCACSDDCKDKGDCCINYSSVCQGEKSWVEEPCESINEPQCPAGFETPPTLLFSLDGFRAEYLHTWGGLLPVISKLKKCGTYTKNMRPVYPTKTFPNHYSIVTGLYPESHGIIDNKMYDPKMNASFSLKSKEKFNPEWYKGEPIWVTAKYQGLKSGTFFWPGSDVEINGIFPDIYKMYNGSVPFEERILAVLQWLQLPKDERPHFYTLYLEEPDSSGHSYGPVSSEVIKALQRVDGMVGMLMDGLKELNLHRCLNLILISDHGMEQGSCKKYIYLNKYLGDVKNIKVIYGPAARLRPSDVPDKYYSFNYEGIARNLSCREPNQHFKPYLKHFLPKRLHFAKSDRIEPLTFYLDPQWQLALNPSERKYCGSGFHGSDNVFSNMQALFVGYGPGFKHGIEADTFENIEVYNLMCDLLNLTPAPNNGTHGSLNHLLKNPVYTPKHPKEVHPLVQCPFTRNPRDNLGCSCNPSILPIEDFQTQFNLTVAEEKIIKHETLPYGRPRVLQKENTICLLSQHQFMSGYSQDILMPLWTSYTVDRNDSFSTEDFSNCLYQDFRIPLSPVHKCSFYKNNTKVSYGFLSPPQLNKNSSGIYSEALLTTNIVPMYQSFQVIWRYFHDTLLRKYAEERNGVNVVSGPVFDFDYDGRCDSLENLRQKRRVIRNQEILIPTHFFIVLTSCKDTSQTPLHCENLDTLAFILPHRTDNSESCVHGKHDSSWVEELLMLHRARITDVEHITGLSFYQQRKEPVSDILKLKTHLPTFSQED
Test: in vitro recombinant human ENPP1 enzymatic assay (AMP-Glo, cGAMP substrate)
Format: biochemical
Details: for % inhibition: ENPP1, test concentration not given; for IC50: average ± SD from two or three independent repeats
Source text: ENPP1 hydrolyses nucleotides or nucleotide derivatives and produces nucleoside-5′-monophosphates and pyrophosphates. ENPP1 also hydrolyses 2′3′-cGAMP and produces 5′-adenosine monophosphate (AMP) and 5′ guanosine monophosphate (GMP). The produced AMP from the reaction is detected using the AMP-Glo® kit (Promega). The assay kit consists of two reagents; one to terminate the AMP-generating enzymatic reaction, remove ATP and convert AMP produced into ADP, and a second reagent to convert ADP to ATP, which is used to generate a luminescence in a luciferase reaction. The amount of light measured is proportional to the amount of AMP produced by ENPP1.
The final assay reaction mixture contains a buffer of 50 mM Tris (pH 8.5), 250 mM NaCl, 0.5 mM CaCl2, 1 μM ZnCl2, 5% glycerol and 1% DMSO. Serially diluted ENPP1 inhibitors (usually range from 10 μM to 0.5 nM) are pre-incubated with human recombinant ENPP1 enzyme (R&D systems) at 3 ng/reaction for 5–10 min at room temperature (RT). The reaction is initiated by adding cGAMP (at final concentration of 5 μM) and incubating for 90 min at 37 °C. At the end of incubation, the reaction is stopped by adding 10 μL of AMP-Glo reagent I and followed by incubation at RT for one hour. After incubation, 20 μL of AMP detection solution (mixture of AMP-Glo II reagent and Kinase-Glo one at 1:100 ratio) is added and incubated at RT for one hour. The luminescence signal generated is measured using the ClarioStar plate reader (BMG Labtech). Maximal activity control (containing enzyme and substrate in presence of 1% DMSO only; MAX) and background control (containing substrate and 1% DMSO; MIN) are evaluated simultaneously. In each experiment, serially diluted reference ENPP1 inhibitor is tested together. The IC50 values for % remaining activity versus compound concentration are determined by fitting the inhibition curves using a three-parameter variable method in GraphPad Prism® software. Triplicate wells are run at each inhibitor concentration and averaged IC50 value for each compound is calculated.

Compound | % inhibition (Table 1) [%] | IC50 (Table 1) [µM] | % inhibition (Table 2) [%] | IC50 (Table 2) [µM]
NS(=O)(=O)NCCC1CCN(c2ncnc3[nH]ccc23)CC1 [18a, N-(2–(1-(7H-Pyrrolo[2,3-d]pyrimidin-4-yl)piperidin-4-yl)ethyl)methanesulfamide hydrochloride] | 99 |  |  | 
CSc1nc(N2CCC(CCNS(N)(=O)=O)CC2)c2cc[nH]c2n1 [18b] | 34 | 21.61 ± 0.00216 |  | 
NS(=O)(=O)NCC1CCN(c2ncnc3[nH]ccc23)CC1 [18c, N-((1–(7H-Pyrrolo[2,3-d]pyrimidin-4-yl)piperidin-4-yl)methyl)methanesulfamide hydrochloride] | 100 | 0.019 ± 1.6e-05 |  | 
Cn1ccc2c(N3CCC(CNS(N)(=O)=O)CC3)ncnc21 [18d, N-((1–(7-Methyl-7H-pyrrolo[2,3-d]pyrimidin-4-yl)piperidin-4-yl)methyl)methanesulfamide hydrochloride] | 100 | 0.0514 ± 2e-06 |  | 
CC(C)n1ccc2c(N3CCC(CNS(N)(=O)=O)CC3)ncnc21 [18e, N-((1–(7-Isopropyl-7H-pyrrolo[2,3-d]pyrimidin-4-yl)piperidin-4-yl)methyl)methanesulfamide hydrochloride] | 75 | 20.66 ± 0.00502 |  | 
NS(=O)(=O)NCC1CCN(c2ncnc3c2ccn3C2CC2)CC1 [18f, N-((1–(7-Cyclopropyl-7H-pyrrolo[2,3-d]pyrimidin-4-yl)piperidin-4-yl)methyl)methanesulfamide hydrochloride hydrochloride] | 100 | 0.074 ± 5.2e-05 |  | 
NS(=O)(=O)NCC1CCN(c2ncnc3c2ccn3-c2ccccc2)CC1 [18g, N-((1–(7-Phenyl-7H-pyrrolo[2,3-d]pyrimidin-4-yl)piperidin-4-yl)methyl)methanesulfamide hydrochloride hydrochloride] | 99 | 0.298 ± 4.1e-05 |  | 
NS(=O)(=O)NCC1CCN(c2ncnc3c2ccn3-c2ccc(F)cc2)CC1 [18h, N-((1–(7-(4-Fluorophenyl)-7H-pyrrolo[2,3-d]pyrimidin-4-yl)piperidin-4-yl)methyl)methanesulfamide hydrochloride] | 54 |  |  | 
COc1ccc(-n2ccc3c(N4CCC(CNS(N)(=O)=O)CC4)ncnc32)cc1 [18i, N-((1–(7-(4-Methoxyphenyl)-7H-pyrrolo[2,3-d]pyrimidin-4-yl)piperidin-4-yl)methyl)methanesulfamide hydrochloride] | 37 |  |  | 
NS(=O)(=O)NCC1CCN(c2ncnc3c2ccn3Cc2ccccc2)CC1 [18j, N-((1–(7-Benzyl-7H-pyrrolo[2,3-d]pyrimidin-4-yl)piperidin-4-yl)methyl)methanesulfamide hydrochloride] | 17 |  |  | 
NS(=O)(=O)NCC1CCN(c2ncnc3c2ccn3-c2ccoc2)CC1 [18k, N-((1–(7-(Furan-3-yl)-7H-pyrrolo[2,3-d]pyrimidin-4-yl)piperidin-4-yl)methyl)methanesulfamide hydrochloride] | 100 | 0.0541 ± 1e-06 |  | 
NS(=O)(=O)NCC1CCN(c2ncnc3c2ccn3-c2cccnc2)CC1 [18l, N-((1-(7-(Pyridin-3-yl)-7H-pyrrolo[2,3-d]pyrimidin-4-yl)piperidin-4-yl)methyl)methanesulfamide hydrochloride] | 71 | 1.853 ± 0.00116 |  | 
Cc1c[nH]c2ncnc(N3CCC(CNS(N)(=O)=O)CC3)c12 [18m, N-((1–(5-Methyl-7H-pyrrolo[2,3-d]pyrimidin-4-yl)piperidin-4-yl)methyl)methanesulfamide hydrochloride] | 94 | 0.462 ± 0.00017 |  | 
Cc1cc2c(N3CCC(CNS(N)(=O)=O)CC3)ncnc2[nH]1 [18n, N-((1–(6-Methyl-7H-pyrrolo[2,3-d]pyrimidin-4-yl)piperidin-4-yl)methyl)methanesulfamide hydrochloride] | 99 | 0.218 ± 1.9e-05 |  | 
CC(NS(N)(=O)=O)C1CCN(c2ncnc3[nH]ccc23)CC1 (stereo not drawn) [18o, N-(1–(1-(7H-Pyrrolo[2,3-d]pyrimidin-4-yl)piperidin-4-yl)ethyl)methanesulfamide hydrochloride] | 99 | 0.25 ± 2.8e-05 |  | 
NS(=O)(=O)NC1CCN(c2ncnc3[nH]ccc23)CC1 [18q, N-(1-(7H-Pyrrolo[2,3-d]pyrimidin-4-yl)piperidin-4-yl)methanesulfamide hydrochloride] | 71 | 3.323 ± 0.000298 |  | 
Cl.O=S(=O)(NCC1CCN(c2ncnc3[nH]ccc23)CC1)c1cccs1 [20a, N-((1-(7H-Pyrrolo[2,3-d]pyrimidin-4-yl)piperidin-4-yl)methyl)thiophene-2-sulfonamide hydrochloride] | 37 |  |  | 
Cc1ccc(S(=O)(=O)NCC2CCN(c3ncnc4[nH]ccc34)CC2)cc1.Cl [20b, N-((1-(7H-Pyrrolo[2,3-d]pyrimidin-4-yl)piperidin-4-yl)methyl)-4-methylbenzenesulfonamide hydrochloride] | 62 |  |  | 
Cl.O=S(=O)(NCC1CCN(c2ncnc3[nH]ccc23)CC1)C1CC1 [20c, N-((1-(7H-Pyrrolo[2,3-d]pyrimidin-4-yl)piperidin-4-yl)methyl)cyclopropanesulfonamide hydrochloride] | 22 |  |  | 
NS(=O)(=O)Nc1ccc(-c2ncnc3[nH]ccc23)cc1 [25a] |  |  | 0 | 
NS(=O)(=O)Nc1ccc(-c2ccnc3[nH]ccc23)cc1 [25b, N-(4-(1H-Pyrrolo[2,3-b]pyridin-4-yl)phenyl)methanesulfamide hydrochloride] |  |  | 33 | 
NS(=O)(=O)NCc1ccc(-c2ncnc3[nH]ccc23)cc1F [25c, N-(2-Fluoro-4-(7H-pyrrolo[2,3-d]pyrimidin-4-yl)benzyl)methanesulfamide hydrochloride] |  |  | 73 | 
NS(=O)(=O)NCc1ccc(-c2ncnc3[nH]ccc23)cc1 [25d, N-(4-(7H-Pyrrolo[2,3-d]pyrimidin-4-yl)benzyl)methanesulfamide hydrochloride] |  |  | 76 | 7.597 ± 0.00127
Cn1ccc2c(-c3ccc(CNS(N)(=O)=O)cc3)ncnc21 [25e, N-(4-(7-Methyl-7H-pyrrolo[2,3-d]pyrimidin-4-yl)benzyl)methanesulfamide hydrochloride] |  |  | 72 | 
NS(=O)(=O)NCc1cccc(-c2ncnc3[nH]ccc23)c1 [25g, N-(3-(7H-Pyrrolo[2,3-d]pyrimidin-4-yl)benzyl)methanesulfamide hydrochloride] |  |  | 53 | 4.769 ± 0.000455
CC(C)(NS(N)(=O)=O)c1ccc(-c2ncnc3[nH]ccc23)cc1 [25h, N-(2–(4-(7H-Pyrrolo[2,3-d]pyrimidin-4-yl)phenyl)propan-2-yl)methanesulfamide hydrochloride] |  |  | 98 | 1.466 ± 4.4e-05
CC(NS(N)(=O)=O)c1ccc(-c2ncnc3[nH]ccc23)cc1 (stereo not drawn) [25j, N-(1–(4-(7H-Pyrrolo[2,3-d]pyrimidin-4-yl)phenyl)ethyl)methanesulfamide hydrochloride] |  |  | 100 | 
